The text below walks through data of patent publication US9522130B2, “Use of miR-221 and 222 lowering agents to prevent cardiovascular disease in diabetic subjects” (priority 2013, dated 2016).

Entries after “also recorded” stand apart in the source; their conditions may differ.

In series [1] the test system is miR-221/222. The series is described as follows: miR-221 and miR-222 levels in injured femoral arteries by quantitative real-time PCR. To be noted: diabetic mice; Pluronic gel on injured femoral artery; 7 days. It is filed as in vivo. Here is the method: FIG. 7. Diabetes induces an increase in miR-221/222 levels in arteries. Total RNA was prepared from injured femoral arteries of diabetic and non-diabetic mice receiving a Pluronic gel containing either control oligonucleotide (NT) or 2′OMe-miR-222 (AS) for 7 days. Levels of miR-221 and miR-222 were measured using quantitative real-time PCR with U6 as a loading control. Data is normalized to the ND. Data represent the mean±SEM and † indicates p<0.05 by ANOVA using Tukey's HSD.
(Real-time PCR tracks product formation cycle by cycle.)

Series [2] concerns diabetic and non-diabetic mice. In words: Femoral artery wire injury, neointima formation / intimal thickening. It counts as in vivo. Here is the method: FIG. 1. Neointimal hyperplasia is increased in an mTOR-independent manner in diabetic mice. Femoral artery wire injury was performed in the mice in diabetic mice (DM) and non-diabetic mice […] and neointima formation was assessed at 14 days post-injury. […] Data represent the mean±SEM. † indicates p<0.05 by ANOVA with Tukey's HSD.
FIG. 10. Diabetes induces an increase in miR-221/222 that increases intimal thickening. Intimal thickening was measured in the wire injured femoral arteries of diabetic and non-diabetic mice receiving a Pluronic gel containing either control oligonucleotide (NT) or 2′OMe-miR-222 (AS) after 14 days. Data represent the mean±SEM and † indicates p<0.05 by ANOVA using Tukey's HSD.
FIG. 14. […] Mean intima:media ratios of ND and DM mice following femoral artery wire injury and implantation of a Pluronic-F 127 gel containing either vehicle or rapamycin (100 μg) with and without administration of the ERK pathway inhibitor, U0126 (7.5 mg/kg/d). Bars indicate p<0.05 by ANOVA.

In another series the test system is p27^Kip1. The series is described as follows: p27Kip1 protein ELISA in injured femoral arteries. To be noted: diabetic mice; Pluronic gel on injured femoral artery; 7 days. It counts as in vivo. The protocol:
FIG. 9. Diabetes induces an increase in miR-221/222 that reduces p27^Kip1 levels in arteries Protein lysates were prepared from injured femoral arteries of diabetic and non-diabetic mice receiving a Pluronic gel containing either control oligonucleotide (NT) or 2′OMe-miR-222 (AS) after 7 days. Levels of p27^Kip1 protein levels were measured using an ELISA kit. Data is normalized to the ND. Data represent the mean±SEM and † indicates p<0.05 by ANOVA using Tukey's HSD.

For series [3], the system named is miR-221/222. The series is described as follows: miR-221/222 levels in VSMCs incubated with AMPK agonist. It is filed as cell-based. The conditions noted are these: VSMCs from diabetic mice; 3 h incubation. The protocol: FIG. 11. The increase in miR-221/222 in VSMCs from the DM mice is reversed by AMPK activation. miR-221/222 levels were measured in VSMCs from non-diabetic and diabetic mice incubated with vehicle (Con) and the AMPK agonist, Metformin (Met) for 3 h. Data represent the mean±SEM.
FIG. 12. The increase in miR-221/222 in VSMCs from the DM mice is reversed by AMPK activation. miR-221/222 levels were measured in VSMCs from non-diabetic and diabetic mice incubated with vehicle (Con) and the AMPK agonist, AICAR for 3 h. Data represent the mean±SEM.

The subject of a further series is p27^Kip1 mRNA. In words: Half-life of p27Kip1 mRNA in serum-stimulated VSMCs. It is filed as cell-based. The conditions noted are these: VSMCs from diabetic mice stimulated with serum. The protocol:
FIG. 4. Increased ERK activation promotes loss of p27^Kip1 in diabetic mice. A) The ratio of phosphorylated (active) ERK to total ERK in the aortae of non-diabetic (ND) mice and diabetic mice receiving either vehicle (DM) or the ERK pathway inhibitor (DM+EI) U0126, ip, 7.5 mg/kg/d for 3 days). p27^Kip1 protein (B) and mRNA (C) levels in the same mice as in A. D and E) The half-life of p27^Kip1 mRNA in VSMCs from DM and ND mice stimulated with serum with and without the ERK pathway inhibitor PD98059 (D,PD) or siRNA targeting ERK (E, ERK siRNA). † indicate p<0.05 by ANOVA (B and D) or Student's t-test (E and F).

For a further series, the system named is non-diabetic animals. To be noted: previous reports (9); cited from earlier work.
Series [4] relates to miR-221/222. The series is described as follows: miR-221/222 levels in internal mammary arteries of coronary artery bypass patients by real-time PCR. It counts as in vivo, human. To be noted: diabetic patients currently taking metformin (DMMet+), coronary artery bypass surgery. Here is the method: FIG. 13. miR-221/222 are reduced in the vasculature of diabetic patients taking the AMPK agonist metformin. miR-221/222 levels were measured using real-time PCR methods in the internal mammary arteries of non-diabetic (ND), diabetic subjects currently taking metformin (DMMet+), and diabetic subjects not taking metformin (DMMet−) undergoing coronary artery bypass surgery. […] Data represent the mean±SEM.

Series [5] has as its system miR-221/222. To be noted: diabetic mice; 3 d post-injury or sham. Here is the method:
FIG. 6. […] Femoral artery wire injury or sham procedure was performed in the non-diabetic (ND) and diabetic (DM) mice and miR-221 levels were measured 3d post-injury. A group of MF-12 mice (Sham+EI) received a MEK1 inhibitor (U0126, […]). Data represent the mean±SEM.

Take “2′OMe-miR-222: silencing RNA, 2′-O-methylated, directly inhibiting miR-221/222; sequence 5′-ACCCAGUAGCCAGAUGUAGCU-3′ (likely SEQ ID NO 4) (all 2'-O-methyl, backbone not given here)”: the “miR-221/222 levels in the vasculature” value with miR-221/222 [1] is on record as “reduces miR-221/222 levels back to normal”. Further, the intimal thickening result in series [2] (diabetic mice, Pluronic gel on wire injured femoral artery, 14 days) is on record as “effective at reducing intimal thickening in the diabetic mice to levels similar to that of normal mice”. Further, the p27Kip1 protein levels result with p27^Kip1 is on record as “restores levels of p27^Kip1 protein to normal levels”.

As to `NC(=O)c1ncn([C@@H]2O[C@H](CO)[C@@H](O)[C@H]2O)c1N` [AICAR], in the series on miR-221/222 [3], the “miR-221/222 levels in VSMCs” value was “effective in reducing miR-221/222 in the VSMCs from diabetic mice to levels similar to VSMCs from non-diabetic mice”.

Turning to `COc1cccc(-c2cc(=O)c3ccccc3o2)c1N` [PD98059], the “accelerated degradation (half-life) of p27Kip1 mRNA” value in the series with p27^Kip1 mRNA was “effective at blocking the accelerated degradation”. Besides, the “cell proliferative aspect of intimal thickening following arterial injury” value with non-diabetic animals is recorded as “not effective”.

Turning to `CN(C)C(=N)N=C(N)N` [metformin], in the series on miR-221/222 [3], the “miR-221/222 levels in VSMCs” value is “effective in reducing miR-221/222 in the VSMCs from diabetic mice to levels similar to VSMCs from non-diabetic mice”. Also, the “miR-221/222 levels in internal mammary arteries” value in the series with miR-221/222 [4] was “normal levels”.

Take `N#CC(=C(/N)Sc1ccccc1N)/C(C#N)=C(\N)Sc1ccccc1N` [U0126]: in series [2] (diabetic mice, U0126 7.5 mg/kg/d), the “intimal hyperplasia following wire injury” value is given as “reduces intimal hyperplasia”. In addition, the “sensitivity of intimal thickening to rapamycin” value in series [2] (diabetic mice, U0126 7.5 mg/kg/d co-administered with local rapamycin 100 μg, 7.5 mg/kg/day) is recorded as “restores sensitivity to rapamycin; also recorded: restores the ability of rapamycin to intimal thickening”. For the same molecule, the “intimal thickening (intima:media ratio)” value in series [2] (non-diabetic mice, U0126 7.5 mg/kg/d co-administered with local rapamycin) was “minimal effects”. In addition, the “increase in miR-221/222 levels in the vasculature” value in the series on miR-221/222 [5] is given as “blocked”.
